Experimental data from publication PMC6855212, “Antibacterial activity of synthetic 1,3‐bis(aryloxy)propan‐2‐amines against Gram‐positive bacteria” (MicrobiologyOpen, 2019).
In brackets after ≈: the same amount, converted by molar mass. Several values for one entry are separate records, joined by “and”; a condition that tells them apart may be missing. Equal values may be shown once. Read-outs that look alike come from different tables or passages of the source.

What was measured:
S. aureus = system: S. aureus; design: method as in CLSI, 2017; conditions: antimicrobials in clinical use; ref CLSI, 2017; cited from earlier work
E. faecalis = system: E. faecalis; design: method as in CLSI, 2017; conditions: antimicrobials in clinical use; ref CLSI, 2017; cited from earlier work
[1] = system: Enterococcus faecalis ATCC 29213; assay: MIC, broth microdilution; format: cell-based
Procedure: (§1) The antibacterial activity of the compounds was evaluated using the broth microdilution method in 96‐well microplates according to the Clinical and Laboratory Standards Institute protocol (CLSI, 2017). First, synthetic compounds were diluted in Mueller Hinton broth (MHB; Oxoid, Thermo Scientific, UK) to concentrations ranging from 20 to 2.5 μg/ml. The same volume of a bacterial suspension containing 10^5 CFU/ml was added to each of the previous solutions, resulting in final compound concentrations from 10 to 1.25 μg/ml. […] All conditions were tested in triplicate and the results shown are representative of three independent assays.

[2] = system: Staphylococcus aureus ATCC 29212; assay: MIC, broth microdilution; format: cell-based; conditions: for MIC: Staphylococcus aureus, ATCC29212
Procedure: as §1

[3] = system: Streptococcus pyogenes ATCC 19615; assay: MIC, broth microdilution; format: cell-based; conditions: for MIC: Streptococcus pyogenes, ATCC19615
Procedure: as §1

MRSA = system: MRSA; design: method as in Baltch, Ritz, Bopp, Michelsen, & Smith, 2007; conditions: antimicrobials used in the clinic; ref Baltch, Ritz, Bopp, Michelsen, & Smith, 2007; cited from earlier work
MRSA Strain 5749 [4] = assay: MIC, broth microdilution; format: cell-based; conditions: Staphylococcus aureus, read-out: MIC MRSA Strain 5749
Procedure: as §1

MRSA Strain 5912 [5] = assay: MIC, broth microdilution; format: cell-based; conditions: Staphylococcus aureus, read-out: MIC MRSA Strain 5912
Procedure: as §1

MRSA Strain 6100 [6] = assay: MIC, broth microdilution; format: cell-based; conditions: Staphylococcus aureus, read-out: MIC MRSA Strain 6100
Procedure: as §1

MRSA Strain 6154 [7] = assay: MIC, broth microdilution; format: cell-based; conditions: Staphylococcus aureus, read-out: MIC MRSA Strain 6154
Procedure: as §1

MRSA Strain 6613 [8] = assay: MIC, broth microdilution; format: cell-based; conditions: Staphylococcus aureus, read-out: MIC MRSA Strain 6613
Procedure: as §1

MRSA Strain 5749 [9] = assay: MBC, plating of wells without growth; format: cell-based; conditions: Staphylococcus aureus
Procedure: (§2) After incubation at 35°C for 24 hr, the colonies were counted and the percentage of inhibition was calculated. MBC is defined as the lowest compound's concentration that inhibits at least 99.9% of the bacterial cell count compared to nontreated viability control (Clinical and Laboratory Standards Institute, 1999).

MRSA Strain 5912 [10] = assay: MBC, plating of wells without growth; format: cell-based; conditions: Staphylococcus aureus
Procedure: as §2

MRSA Strain 6100 [11] = assay: MBC, plating of wells without growth; format: cell-based; conditions: Staphylococcus aureus
Procedure: as §2

MRSA Strain 6154 [12] = assay: MBC, plating of wells without growth; format: cell-based; conditions: Staphylococcus aureus
Procedure: as §2

MRSA Strain 6613 [13] = assay: MBC, plating of wells without growth; format: cell-based; conditions: Staphylococcus aureus
Procedure: as §2

S. aureus ATCC 29212 = assay: MBC, plating of wells without growth; format: cell-based; conditions: Staphylococcus aureus, ATCC29212; at least 99.9% inhibition of cell count
Procedure: as §2

S. pyogenes ATCC 19615 = assay: MBC, plating of wells without growth; format: cell-based; conditions: Streptococcus pyogenes, ATCC19615; at least 99.9% inhibition of cell count
Procedure: as §2

[14] = Cytotoxicity, MTT reduction assay; format: cell-based; conditions: African green monkey, 48 hr
Procedure: The cytotoxicity of active compounds to mammalian cells was assessed using the MTT reduction assay (Mosmann, 1983). Vero and BSC‐40 cells were seeded in 96‐well plates (8 × 10^4 cells per well) and incubated at 37°C and 5% CO2 atmosphere. After 24 hr of incubation, 200 μL of fresh medium containing a serial dilution of compounds (10–1.25 μg/ml) were added to the plates. After 48 hr of incubation in the same conditions, 100 μL of MTT solution in MEM or DMEM (5 mg/ml) was added to each well and incubated for 3 hr at 37°C and 5% CO2 atmosphere. The medium was removed and 100 μL of DMSO was used to solubilize formazan crystals. Absorbance at 570 nm of each well was read using a spectrophotometer (VersaMax, Molecular Devices).

MRSA strains = assay: MIC, broth microdilution, MRSA strains taken together; format: cell-based; conditions: Staphylococcus aureus; over the six MRSA strains (CPD18: four out of six); read-out: MIC against MRSA strains
Procedure: as §1

[15] = system: Gram‐positive bacteria (E. faecalis, S. aureus and S. pyogenes); assay: MIC, broth microdilution, Gram‐positive bacteria taken together; format: cell-based; conditions: Staphylococcus aureus; over different bacterial strains, including MRSA where stated; read-out: MIC against Gram‐positive bacteria, summary
Procedure: as §1

MRSA ATCC 43300 = assay: MIC, broth microdilution; format: cell-based; conditions: Staphylococcus aureus, read-out: MIC MRSA ATCC 43300
Procedure: as §1

[16] = 24 hr, 35°C, read-out: MIC Staphylococcus aureus ATCC 29212
[17] = 24 hr, 35°C, read-out: MIC Streptococcus pyogenes ATCC 19615

NC[C@H]1O[C@H](O[C@H]2[C@H](O)[C@@H](O[C@H]3O[C@H](CO)[C@@H](O)[C@H](N)[C@H]3O)[C@H](N)C[C@@H]2N)[C@H](O)[C@@H](O)[C@@H]1O [kanamycin]
MIC S. aureus (S. aureus): 1 to 4 µg/mL | MIC E. faecalis (E. faecalis): 16 to 64 µg/mL

CC1(C)S[C@@H]2[C@H](NC(=O)Cc3ccccc3)C(=O)N2[C@H]1C(=O)O [Penicillin G, reference compound]
MIC ([1]; Enterococcus faecalis, ATCC29213, 24 hr, 35°C, — = no activity up to 10 μg/ml, read-out: MIC Enterococcus faecalis ATCC 29213): 5.98 µM (≈ 2 µg/mL) | MIC [2, 16]: 0.06 µM | MIC [3, 17]: 0.24 µM

CC(=O)NC[C@H]1CN(c2ccc(N3CCOCC3)c(F)c2)C(=O)O1 [linezolid]
MIC S. aureus (S. aureus): 1 to 4 µg/mL | MIC E. faecalis (E. faecalis): 1 to 4 µg/mL

Clc1ccc(OCC(COc2ccc(Cl)cc2)N2CCOCC2)cc1 [CPD34, 4‐(1,3‐Bis(4‐chlorophenoxy)propan‐2‐yl)morpholine]
melting point: 62.6 to 64.8 °C

CS(=O)(=O)OC(COc1ccc(Cl)c(Cl)c1)COc1ccc(Cl)c(Cl)c1 [CPD30, 1,3‐Bis(3,4‐dichlorophenoxy)propan‐2‐yl methanesulfonate]
melting point: 83.7 to 84.4 °C

O=C(N[C@H](CO)[C@H](O)c1ccc([N+](=O)[O-])cc1)C(Cl)Cl [chloramphenicol]
MIC S. aureus (S. aureus): 2 to 16 µg/mL | MIC E. faecalis (E. faecalis): 4 to 16 µg/mL

CC(C)(O/N=C(\C(=O)N[C@@H]1C(=O)N2C(C(=O)[O-])=C(C[n+]3ccccc3)CS[C@H]12)c1csc(N)n1)C(=O)O [ceftazidime]
MIC S. aureus (S. aureus): 4 to 16 µg/mL

NCC[C@H](O)C(=O)N[C@@H]1C[C@H](N)[C@@H](O[C@H]2O[C@H](CN)[C@@H](O)[C@H](O)[C@H]2O)[C@H](O)[C@H]1O[C@H]1O[C@H](CO)[C@@H](O)[C@H](N)[C@H]1O [amikacin]
MIC S. aureus (S. aureus): 1 to 4 µg/mL | MIC E. faecalis (E. faecalis): 64 to 256 µg/mL

CNC(C)C1CCC(N)C(OC2C(N)CC(N)C(OC3OCC(C)(O)C(NC)C3O)C2O)O1 (stereo not shown) [gentamicin]
MIC MRSA (MRSA): 128 µg/mL (≈ 268 µM)

OC(COc1ccc(Cl)c(Cl)c1)COc1ccc(Cl)c(Cl)c1 [CPD29, 1,3‐Bis(3,4‐dichlorophenoxy)propan‐2‐ol]
melting point: 103.4 to 105.7 °C

NC(COc1ccc2ccccc2c1)COc1ccc2ccccc2c1 [CPD21]
Antibacterial activity in initial screening, E. faecalis ([1]; concentration of 10 μg/ml): not observed | MIC (MRSA Strain 5749 [4]; clinical strain): 26.3 µM (≈ 9.04 µg/mL) | MIC (MRSA Strain 5912 [5]; clinical strain): 13.2 µM (≈ 4.52 µg/mL) | MIC (MRSA Strain 6100 [6]; clinical strain, — = no activity up to 10 μg/ml): 26.3 µM (≈ 9.04 µg/mL) | MIC (MRSA Strain 6154 [7]; clinical strain): 26.3 µM (≈ 9.04 µg/mL) | MIC (MRSA Strain 6613 [8]; clinical strain): 26.3 µM (≈ 9.04 µg/mL) | MIC [2, 16]: 26.3 µM | MIC ([2]; read-out: MIC against S. aureus): 10 µg/mL | Antibacterial activity in initial screening, S. aureus ([2]; concentration of 10 μg/ml): showed activity | MIC [3, 17]: 26.3 µM | MIC ([3]; read-out: MIC against S. pyogenes): 10 µg/mL | Antibacterial activity in initial screening, S. pyogenes ([3]; concentration of 10 μg/ml): showed activity | MBC (MRSA Strain 5749 [9]): 26.3 µM (≈ 9.04 µg/mL) | MBC (MRSA Strain 5912 [10]): 13.2 µM (≈ 4.52 µg/mL) | MBC (MRSA Strain 6100 [11]): 26.3 µM (≈ 9.04 µg/mL) | MBC (MRSA Strain 6154 [12]): 26.3 µM (≈ 9.04 µg/mL) | MBC (MRSA Strain 6613 [13]): 26.3 µM (≈ 9.04 µg/mL) | MBC (S. aureus ATCC 29212): 26.3 µM (≈ 9.04 µg/mL) | MBC (S. pyogenes ATCC 19615): 26.3 µM (≈ 9.04 µg/mL) | CC50 at 48 h ([14]; BSC-40 cells, BSC‐40, MTT, read-out: CC50): 5.06 ± 1.13 µg/mL | CC50 at 48 h ([14]; BSC-40 cells, BSC‐40, MTT, read-out: CC50 ± SD): 13.3 ± 2.97 µM | CC50 at 48 h ([14]; Vero cells, MTT, read-out: CC50 ± SD): 11.3 ± 2.58 µM | MIC (MRSA strains): 5 µg/mL to 10 µg/mL and 13.2 µM to 26.3 µM | MIC [15]: 10 µg/mL and 26.3 µM

Cc1ccc(S(=O)(=O)OC(COc2ccc(Cl)cc2)COc2ccc(Cl)cc2)cc1 [CPD39, 1,3‐bis(4‐chlorophenoxy)propan‐2‐yl 4‐methylbenzenesulfonate]
melting point: 145.3 to 147.2 °C

Cc1onc(-c2ccccc2)c1C(=O)N[C@@H]1C(=O)N2[C@@H]1SC(C)(C)[C@@H]2C(=O)O [oxacillin]
MIC MRSA (MRSA): 16 µg/mL (≈ 39.9 µM)

CN[C@H](CC(C)C)C(=O)N[C@H]1C(=O)N[C@@H](CC(N)=O)C(=O)N[C@H]2C(=O)N[C@H]3C(=O)N[C@H](C(=O)N[C@H](C(=O)O)c4cc(O)cc(O)c4-c4cc3ccc4O)[C@H](O)c3ccc(c(Cl)c3)Oc3cc2cc(c3O[C@@H]2O[C@H](CO)[C@@H](O)[C@H](O)[C@H]2O[C@H]2C[C@](C)(N)[C@H](O)[C@H](C)O2)Oc2ccc(cc2Cl)[C@H]1O [Vancomycin, reference compound]
MIC (MRSA ATCC 43300): 1.38 µM (≈ 2 µg/mL) | MIC (MRSA Strain 5749 [4]): 1.38 µM (≈ 2 µg/mL) | MIC (MRSA Strain 5912 [5]): 1.38 µM (≈ 2 µg/mL) | MIC (MRSA Strain 6100 [6]): 1.38 µM (≈ 2 µg/mL) | MIC (MRSA Strain 6154 [7]): 1.38 µM (≈ 2 µg/mL) | MIC (MRSA Strain 6613 [8]): 1.38 µM (≈ 2 µg/mL) | MIC S. aureus (S. aureus): 0.5 to 2 µg/mL | MIC E. faecalis (E. faecalis): 1 to 4 µg/mL | MIC MRSA (MRSA): 2 µg/mL (≈ 1.38 µM)

COc1cccc(OC)c1C(=O)N[C@@H]1C(=O)N2[C@@H]1SC(C)(C)[C@@H]2C(=O)O [methicillin]
MIC E. faecalis (E. faecalis): > 16 µg/mL

[N-]=[N+]=NC(COc1ccc(Cl)c(Cl)c1)COc1ccc(Cl)c(Cl)c1 [CPD31, 1,3‐Bis(3,4‐dichlorophenoxy)propan‐2‐yl azide]
melting point: 95.6 to 96.3 °C

CCN1CCN(C(=O)N[C@@H](C(=O)N[C@@H]2C(=O)N3[C@@H]2SC(C)(C)[C@@H]3C(=O)O)c2ccccc2)C(=O)C1=O [piperacillin]
MIC S. aureus (S. aureus): 1 to 4 µg/mL | MIC E. faecalis (E. faecalis): 1 to 4 µg/mL

CC1(C)S[C@@H]2[C@H](NC(=O)C(C(=O)O)c3ccccc3)C(=O)N2[C@H]1C(=O)O (stereo partly shown) [carbenicillin]
MIC S. aureus (S. aureus): 2 to 8 µg/mL | MIC E. faecalis (E. faecalis): 16 to 64 µg/mL

CCCCCCCCCC(=O)N[C@@H](Cc1c[nH]c2ccccc12)C(=O)N[C@H](CC(N)=O)C(=O)N[C@@H](CC(=O)O)C(=O)N[C@@H]1C(=O)NCC(=O)N[C@@H](CCCN)C(=O)N[C@@H](CC(=O)O)C(=O)N[C@H](C)C(=O)N[C@@H](CC(=O)O)C(=O)NCC(=O)N[C@H](CO)C(=O)N[C@@H]([C@H](C)CC(=O)O)C(=O)N[C@@H](CC(=O)c2ccccc2N)C(=O)O[C@@H]1C [daptomycin]
MIC MRSA (MRSA): 0.5 µg/mL (≈ 0.309 µM)
